Assay results taken from patent US12091411B2, “IRAK degraders and uses thereof” (Kymera Therapeutics, Inc., priority 2022, dated 2024).
Where two headings read alike, the source gives them in different places.

Molecular target: T1, IRAK4 (Homo sapiens, UniProt Q9NWZ3)
T1 construct: Degradation of IRAK4 in OCI-LY10 was quantitatively measured using Meso Scale Discovery technology; endogenous in cells; host or cells: OCI-LY10
T1 sequence (Q9NWZ3 1-460): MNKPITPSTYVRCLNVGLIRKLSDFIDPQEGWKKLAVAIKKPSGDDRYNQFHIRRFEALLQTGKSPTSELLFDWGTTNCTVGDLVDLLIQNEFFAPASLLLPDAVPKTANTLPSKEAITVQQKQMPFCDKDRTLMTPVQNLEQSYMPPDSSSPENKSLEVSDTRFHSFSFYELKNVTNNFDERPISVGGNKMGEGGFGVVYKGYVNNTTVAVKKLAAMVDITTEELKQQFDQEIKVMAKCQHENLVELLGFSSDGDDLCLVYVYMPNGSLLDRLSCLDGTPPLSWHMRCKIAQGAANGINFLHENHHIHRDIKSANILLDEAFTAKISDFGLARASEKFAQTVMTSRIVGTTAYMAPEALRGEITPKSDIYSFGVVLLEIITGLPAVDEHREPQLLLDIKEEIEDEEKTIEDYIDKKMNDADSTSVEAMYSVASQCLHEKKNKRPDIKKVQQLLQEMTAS
Assay: IRAK4 MSD Degradation in OCI-LY10
Type: cell-based
Settings: OCI-LY10 cells, MSD
In short: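 DC50, from a three-parameter logistic fit and reported as letter bins A (<0.01 μM), B, C, D (>0.2 μM or not tested), reflects IRAK4 loss measured by MSD electrochemiluminescence in OCI-LY10 lysates. Treatment: 8 doses, 1:3 steps, top 1 to 10 μM, 4 to 24 h, 37 °C.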

[1] = 4 hrs incubation, read-out: IRAK4 degradation in OCI-LY10 at 4 hrs: DC50
[2] = 24 hrs incubation, read-out: IRAK4 degradation in OCI-LY10 at 24 hrs: DC50

Cn1c(=O)n(C2CCC(=O)NC2=O)c2cccc(C#CCCN3CCN(CC4CCC(n5cc(NC(=O)c6cnn7ccc(C8C[C@H]9C[C@@H]8CO9)nc67)c(C(F)F)n5)CC4)CC3)c21 (stereo partly drawn) [I-162]
DC50 [1]: < 0.01 µM
DC50 [2]: > 0.2 µM

CN1CCN(c2ccn3ncc(C(=O)Nc4cn([C@H]5CC[C@H](CN6CCC(OCC#Cc7cccc8c7n(C)c(=O)n8C7CCC(=O)NC7=O)CC6)CC5)nc4C(F)F)c3n2)CC1 (stereo partly drawn) [I-309]
DC50 [1]: > 0.2 µM
DC50 [2]: < 0.01 µM

Cn1c(=O)n(C2CCC(=O)NC2=O)c2cccc(N3CCC(N4CC5(CCC(n6cc7cc(NC(=O)c8cccc(C(F)(F)F)n8)c(C#N)cc7n6)CC5)C4)C(F)(F)C3)c21 (stereo not drawn) [I-566]
DC50 [1]: > 0.2 µM
DC50 [2]: > 0.2 µM

CN(C[C@H]1CC[C@H](n2cc(NC(=O)c3cnn4cccnc34)c(C(F)F)n2)CC1)C1CCN(c2cccc3c2n(C)c(=O)n3C2CCC(=O)NC2=O)CC1O (stereo partly drawn) [I-486]
DC50 [1]: > 0.2 µM
DC50 [2]: > 0.2 µM

C[C@@H]([C@H]1CC[C@H](n2cc(NC(=O)c3cnn4cccnc34)c(C(F)F)n2)CC1)N(C)C1CCN(c2cccc3c2n(C)c(=O)n3C2CCC(=O)NC2=O)CC1 (stereo partly drawn) [I-241]
DC50 [1]: > 0.2 µM
DC50 [2]: 0.1 to 0.2 µM

Cn1c(=O)n(C2CCC(=O)NC2=O)c2cccc([C@]34C[C@](CN5CCN(C[C@H]6CC[C@H](n7cc(NC(=O)c8cnn9ccc(N%10C[C@H]%11C[C@@H]%10CO%11)nc89)c(C(F)F)n7)CC6)CC5)(C3)C4)c21 (stereo partly drawn) [I-8]
DC50 [1]: < 0.01 µM
DC50 [2]: > 0.2 µM

CCn1c(=O)n(C2CCC(=O)NC2=O)c2cccc(C#CCOC3CCN(C[C@H]4CC[C@H](n5cc(NC(=O)c6cnn7ccc(N8C[C@H]9C[C@@H]8CO9)nc67)c(C(F)F)n5)CC4)CC3)c21 (stereo partly drawn) [I-70]
DC50 [1]: < 0.01 µM
DC50 [2]: > 0.2 µM

Cn1c(=O)n(C2CCC(=O)NC2=O)c2cccc(N3CC(O[C@H]4CCN(C[C@H]5CC[C@H](n6cc(NC(=O)c7cnn8ccc(N9C[C@H]%10C[C@@H]9CO%10)nc78)c(C(F)F)n6)CC5)C[C@@H]4F)C3)c21 (stereo partly drawn) [I-733]
DC50 [1]: > 0.2 µM
DC50 [2]: < 0.01 µM

COc1cc2nn([C@H]3CC[C@H](CN4CCC(c5ccc6c(N7CCC(=O)NC7=O)cncc6c5)C(F)(F)C4)CC3)cc2cc1NC(=O)c1cccc(C(F)(F)F)n1 (stereo partly drawn) [I-471]
DC50 [1]: > 0.2 µM
DC50 [2]: > 0.2 µM

Cn1c(=O)n(C2CCC(=O)NC2=O)c2cccc(C3CCN(C[C@H]4CC[C@H](n5cc6cc(NC(=O)c7cccc(C(F)F)n7)ncc6n5)CC4)CC3(F)F)c21 (stereo partly drawn) [I-616]
DC50 [1]: > 0.2 µM
DC50 [2]: < 0.01 µM

CN(C[C@H]1CC[C@H](n2cc(NC(=O)c3cnn4cccnc34)c(C(F)F)n2)CC1)C1CCN(c2ccc3c(c2)n(C)c(=O)n3C2CCC(=O)NC2=O)CC1(F)F (stereo partly drawn) [I-570]
DC50 [1]: > 0.2 µM

CN(C[C@H]1CC[C@H](n2cc(NC(=O)c3cnn4ccc(N5CCCC5)nc34)c(C(F)F)n2)CC1)C1CCN(c2cccc3c2n(C)c(=O)n3C2CCC(=O)NC2=O)CC1 (stereo partly drawn) [I-278]
DC50 [1]: > 0.2 µM
DC50 [2]: < 0.01 µM

COc1cc2nn([C@H]3CC[C@H](CN4CC(c5cccc6c5n(C)c(=O)n6C5CCC(=O)NC5=O)C4)CC3)cc2cc1NC(=O)c1cncc(C(C)(C)F)n1 (stereo partly drawn) [I-134]
DC50 [1]: > 0.2 µM
DC50 [2]: > 0.2 µM

Cn1c(=O)n(C2CCC(=O)NC2=O)c2cccc(C#CCN3CCN(C[C@H]4CC[C@H](n5cc(NC(=O)c6cnn7cccnc67)c(C(F)F)n5)CC4)CC3)c21 (stereo partly drawn) [I-235]
DC50 [1]: > 0.2 µM
DC50 [2]: 0.01 to 0.1 µM

Cc1cc2nn([C@H]3CC[C@H](CN4CCC(c5cccc6c5n(C)c(=O)n6C5CCC(=O)NC5=O)C(F)(F)C4)CC3)cc2cc1NC(=O)c1cccc(C(F)(F)F)n1 (stereo partly drawn) [I-452]
DC50 [1]: > 0.2 µM
DC50 [2]: > 0.2 µM

COc1cc2nn([C@H]3CC[C@H](CN4CCC(c5ccc6c(c5)n(C)c(=O)n6C5CCC(=O)NC5=O)C(F)(F)C4)CC3)cc2cc1NC(=O)c1cccc(C(F)(F)F)n1 (stereo partly drawn) [I-463]
DC50 [1]: > 0.2 µM
DC50 [2]: > 0.2 µM

COc1cc2nn([C@H]3CC[C@H](CN4CCC(c5cccc6c5n(C)c(=O)n6C5CCC(=O)NC5=O)C(F)C4)CC3)cc2cc1NC(=O)c1cccc(C(F)(F)F)n1 (stereo partly drawn) [I-547]
DC50 [1]: > 0.2 µM
DC50 [2]: < 0.01 µM

Cn1c(=O)n(C2CCC(=O)NC2=O)c2cccc(C3CN([C@@H]4CCN([C@H]5CC[C@H](n6cc(NC(=O)c7cnn8ccc(N9C[C@H]%10C[C@@H]9CO%10)nc78)c(C(F)F)n6)CC5)CC4(F)F)C3)c21 (stereo partly drawn) [I-749]
DC50 [1]: > 0.2 µM
DC50 [2]: > 0.2 µM

Cn1c(=O)n(C2CCC(=O)NC2=O)c2cccc([C@H]3CCN(C[C@H]4CC[C@H](n5cc6cc(NC(=O)c7cccc(C#N)n7)ccc6n5)CC4)C[C@@H]3F)c21 (stereo partly drawn) [I-626]
DC50 [1]: > 0.2 µM
DC50 [2]: > 0.2 µM

Cn1c(=O)n(C2CCC(=O)NC2=O)c2cccc(C#CCOC3CCN(C[C@H]4CC[C@H](n5cc(NC(=O)c6cccc(C#N)n6)c(C(F)F)n5)CC4)CC3)c21 (stereo partly drawn) [I-260]
DC50 [1]: > 0.2 µM
DC50 [2]: > 0.2 µM

CN(C[C@H]1CC[C@H](n2cc(NC(=O)c3cnn4ccc(N5CCC(F)(F)CC5)nc34)c(C(F)F)n2)CC1)C1CCN(c2cccc3c2n(C)c(=O)n3C2CCC(=O)NC2=O)CC1 (stereo partly drawn) [I-273]
DC50 [1]: > 0.2 µM
DC50 [2]: < 0.01 µM

Cn1c(=O)n(C2CCC(=O)NC2=O)c2cccc(C#CCN3CCN(C[C@H]4CC[C@H](n5cc(NC(=O)c6cnn7ccc(N8C[C@H]9C[C@@H]8CO9)nc67)c(C(C)(C)O)n5)CC4)CC3)c21 (stereo partly drawn) [I-279]
DC50 [1]: > 0.2 µM
DC50 [2]: > 0.2 µM

CN(C[C@H]1CC[C@H](n2cc3cc(NC(=O)c4cccc(C(F)(F)F)n4)c(C(F)F)cc3n2)CC1)C1CCN(c2cccc3c2n(C)c(=O)n3C2CCC(=O)NC2=O)CC1(F)F (stereo partly drawn) [I-476]
DC50 [1]: > 0.2 µM
DC50 [2]: > 0.2 µM

C[C@@H]1CN(c2ccn3ncc(C(=O)Nc4cn([C@H]5CC[C@H](CN(C)C6CCN(c7cccc8c7n(C)c(=O)n8C7CCC(=O)NC7=O)CC6(F)F)CC5)nc4C(F)F)c3n2)C[C@H](C)O1 (stereo partly drawn) [I-532]
DC50 [1]: > 0.2 µM
DC50 [2]: > 0.2 µM

O=C1CCC(c2cccc(C#CCOC3CCN(C[C@H]4CC[C@H](n5cc(NC(=O)c6cnn7ccc(N8C[C@H]9C[C@@H]8CO9)nc67)c(C(F)F)n5)CC4)CC3)c2)C(=O)N1 (stereo partly drawn) [I-199]
DC50 [1]: > 0.2 µM
DC50 [2]: 0.01 to 0.1 µM

Cc1ccc(-c2nn([C@H]3CC[C@H](CN4CCN(CC#Cc5cccc6c5n(C)c(=O)n6C5CCC(=O)NC5=O)CC4)CC3)cc2NC(=O)c2cnn3cccnc23)nc1 (stereo partly drawn) [I-122]
DC50 [1]: > 0.2 µM
DC50 [2]: 0.01 to 0.1 µM

O=C1CCN(c2cncc3c(C4CCN(C[C@H]5CC[C@H](n6cc7cc(NC(=O)c8cccc(C(F)(F)F)n8)ccc7n6)CC5)CC4(F)F)cccc23)C(=O)N1 (stereo partly drawn) [I-709]
DC50 [1]: > 0.2 µM
DC50 [2]: 0.01 to 0.1 µM

O=C1CCN(c2cncc3c(C#CCO[C@@H]4CCN(C[C@H]5CC[C@H](n6cc(NC(=O)c7cnn8ccc(N9C[C@H]%10C[C@@H]9CO%10)nc78)c(C(F)F)n6)CC5)C[C@@H]4F)cccc23)C(=O)N1 [I-41]
DC50 [1]: < 0.01 µM
DC50 [2]: > 0.2 µM

Cn1c(=O)n(C2CCC(=O)NC2=O)c2cccc(C#CCN3CCN(C[C@H]4CC[C@H](n5cc(NC(=O)c6cnn7ccc(N8CCC9(CCOCC9)C8)nc67)c(C(F)F)n5)CC4)CC3)c21 (stereo partly drawn) [I-319]
DC50 [1]: > 0.2 µM
DC50 [2]: < 0.01 µM

Cn1c(=O)n(C2CCC(=O)NC2=O)c2cccc(OC3CCN([C@H]4CC[C@H](n5cc6cc(NC(=O)c7cccc(C(F)(F)F)n7)ccc6n5)CC4)CC3)c21 (stereo partly drawn) [I-741]
DC50 [1]: > 0.2 µM
DC50 [2]: < 0.01 µM

CN1C(=O)C(C2CCC(=O)NC2=O)c2cccc(N3CCN(CC4CCC(n5cc6cc(NC(=O)c7cccc(C(F)(F)F)n7)c(S(C)(=N)=O)cc6n5)CC4)CC3)c21 (stereo not drawn) [I-129]
DC50 [1]: < 0.01 µM
DC50 [2]: > 0.2 µM

CCn1c(=O)n(C2CCC(=O)NC2=O)c2cccc(C#CCO[C@H]3CCN(C[C@H]4CC[C@H](n5cc(NC(=O)c6cnn7ccc(N8C[C@H]9C[C@@H]8CO9)nc67)c(C(F)F)n5)CC4)C[C@@H]3C)c21 (stereo partly drawn) [I-59]
DC50 [1]: < 0.01 µM
DC50 [2]: > 0.2 µM

Cn1c(=O)n(C2CCC(=O)NC2=O)c2ccc(N3CC(CO[C@@H]4CCN(C[C@H]5CC[C@H](n6cc(NC(=O)c7cnn8ccc(N9C[C@H]%10C[C@@H]9CO%10)nc78)c(C(F)F)n6)CC5)C[C@H]4F)C3)c(F)c21 (stereo partly drawn) [I-742]
DC50 [1]: > 0.2 µM
DC50 [2]: < 0.01 µM

Cn1c(=O)n(C2CCC(=O)NC2=O)c2cccc(C3CCN(C[C@H]4CC[C@H](n5cc6cc(NC(=O)c7cccc(C(F)(F)F)n7)ncc6n5)CC4)CC3(F)F)c21 (stereo partly drawn) [I-488]
DC50 [1]: > 0.2 µM
DC50 [2]: > 0.2 µM

CN(C[C@H]1CC[C@H](n2cc(NC(=O)c3cnn4ccc(N5CC6(COC6)C5)nc34)c(C(F)F)n2)CC1)C1CCN(c2cccc3c2n(C)c(=O)n3C2CCC(=O)NC2=O)CC1(F)F (stereo partly drawn) [I-509]
DC50 [1]: > 0.2 µM
DC50 [2]: 0.01 to 0.1 µM

Cn1c(=O)n(C2CCC(=O)NC2=O)c2cccc(C#CCOC3C[C@H]4CC[C@@H](C3)N4C[C@H]3CC[C@H](n4cc(NC(=O)c5cnn6ccc(N7C[C@H]8C[C@@H]7CO8)nc56)c(C(F)F)n4)CC3)c21 (stereo partly drawn) [I-12]
DC50 [1]: > 0.2 µM
DC50 [2]: > 0.2 µM

Cn1c(=O)n(C2CCC(=O)NC2=O)c2cccc(C3=CCN(C[C@H]4CC[C@H](n5cc6cc(NC(=O)c7cccc(C(F)(F)F)n7)c(C(F)F)cc6n5)CC4)CC3F)c21 (stereo partly drawn) [I-459]
DC50 [1]: > 0.2 µM
DC50 [2]: > 0.2 µM

CN(C[C@H]1CC[C@H](n2cc3cc(NC(=O)c4cccc(C(F)(F)F)n4)c(S(C)(=O)=O)cc3n2)CC1)C1CCN(c2cccc3c2n(C)c(=O)n3C2CCC(=O)NC2=O)CC1(F)F (stereo partly drawn) [I-479]
DC50 [1]: > 0.2 µM
DC50 [2]: > 0.2 µM
